Experimental data published in patent US11096985B2, “Antimicrobial peptides, their variants and uses” (priority 2015, dated 2021).
Where a SMILES comes first, the peptide text is derived from it. [ ]: non-standard residue; d: D form.

Assays:
[1] = test system: clinical strains of Escherichia coli; test: MIC, clinical strains of E. coli; assay type: cell-based; set-up: unit: μg/ml; conditions: microdilution, Muller Hinton broth-cation adjusted, 0.02% BSA, 0.2% acetic acid
Method in brief: (§1)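 By broth microdilution, Chain peptides from 0.125 to 128 μg/ml were tested against clinical strains adjusted to 5.0×10^5 cfu/ml, with bacteria in MH broth and yeasts in Potato dextrose broth. After 20–24 h at 37 °C, the lowest peptide concentration without visible growth was scored as MIC.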

[2] = test system: clinical strains of C. quillermondiae; test: MIC, clinical yeast strains, C. quillermondiae; assay type: cell-based; conditions: C. quillermondiae clinical yeast strain 1
Method in brief: as §1

[3] = test system: clinical strains of Staphylococcus aureus; test: MIC, clinical strains of S. aureus; assay type: cell-based; set-up: unit: μg/ml; conditions: microdilution, Muller Hinton broth-cation adjusted, 0.02% BSA, 0.2% acetic acid
Method in brief: as §1

[4] = test system: clinical strains of Candida albicans; test: MIC, clinical yeast strains, Candida albicans; assay type: cell-based; set-up: unit: μg/ml
Method in brief: as §1

[5] = test system: clinical strains of Acinetobacter baumannii; test: MIC, clinical strains of Acinetobacter baumannii; assay type: cell-based; conditions: microdilution, Muller Hinton broth-cation adjusted, 0.02% BSA, 0.2% acetic acid
Method in brief: as §1

[6] = test system: clinical strains of C. parapsilosis; test: MIC, clinical yeast strains, C. parapsilosis; assay type: cell-based, Candida parapsilosis; set-up: unit: μg/ml
Method in brief: as §1

[7] = test system: clinical strains of Serratia marcescens; test: MIC, clinical strains of Serratia marcescens; assay type: cell-based; set-up: unit: µg/mL; conditions: microdilution, Muller Hinton broth-cation adjusted, 0.02% BSA, 0.2% acetic acid
Method in brief: as §1

[8] = test system: clinical strains of C. glabrata; test: MIC, clinical yeast strains, C. glabrata; assay type: cell-based, Candida glabrata; set-up: unit: μg/ml
Method in brief: as §1

[9] = test system: clinical strains of Proteus mirabilis; test: MIC, clinical strains of Proteus mirabilis; assay type: cell-based; set-up: unit: µg/mL; conditions: microdilution, Muller Hinton broth-cation adjusted, 0.02% BSA, 0.2% acetic acid
Method in brief: as §1

[10] = test system: clinical strains of Pseudomonas aeruginosa; test: MIC, clinical strains of P. aeruginosa; assay type: cell-based; set-up: unit: μg/ml; conditions: microdilution, Muller Hinton broth-cation adjusted, 0.02% BSA, 0.2% acetic acid
Method in brief: as §1

[11] = test system: clinical strains of Enterobacter cloacae; test: MIC, clinical strains of Enterobacter cloacae; assay type: cell-based; set-up: unit: μg/ml; conditions: microdilution, Muller Hinton broth-cation adjusted, 0.02% BSA, 0.2% acetic acid
Method in brief: as §1

[12] = test system: clinical strains of Klebsiella pneumoniae; test: MIC, clinical strains of K. pneumoniae; assay type: cell-based; set-up: unit: μg/ml; conditions: microdilution, Muller Hinton broth-cation adjusted, 0.02% BSA, 0.2% acetic acid
Method in brief: as §1

[13] = test system: clinical strains of Acinetobacter johnsonii; assay type: cell-based; conditions: Acinetobacter johnsonii clinical strain 1; microdilution, Muller Hinton broth-cation adjusted, 0.02% BSA, 0.2% acetic acid
Method in brief: as §1

[14] = test system: clinical strains of Streptococcus pneumoniae; test: MIC, clinical strains of Streptococcus pneumoniae; assay type: cell-based; set-up: unit: µg/mL; conditions: microdilution, Muller Hinton broth-cation adjusted, 0.02% BSA, 0.2% acetic acid
Method in brief: as §1

CC(C)C[C@@H](NC(=O)[C@H](N)CCCNC(=N)N)C(=O)N[C@H](CCCCN)C(=O)N[C@H](Cc1c[nH]c2ccccc12)C(=O)N[C@H](Cc1ccccc1)C(=O)N[C@H](CC(C)C)C(=O)N[C@H](CC(C)C)C(=O)N[C@H](Cc1ccccc1)C(=O)N[C@H](CCCNC(=N)N)C(=O)N[C@H](CCCCN)C(=O)N[C@H](CCCNC(=N)N)C(=O)O [Chain308D] (H-[dR][dL][dK][dW][dF][dL][dL][dF][dR][dK][dR]-OH)
Minimum inhibitory concentration ([1]; Escherichia coli clinical strain 1): 1
Minimum inhibitory concentration ([1]; Escherichia coli clinical strain 2): 0.5
Minimum inhibitory concentration ([1]; Escherichia coli clinical strain 3): 1
Minimum inhibitory concentration ([1]; Escherichia coli clinical strain 4): 1
Minimum inhibitory concentration ([1]; Escherichia coli clinical strain 5): 1
Minimum inhibitory concentration [2]: 4
Minimum inhibitory concentration ([3]; Staphylococcus aureus clinical strain 1): 1
Minimum inhibitory concentration ([3]; Staphylococcus aureus clinical strain 2): 2
Minimum inhibitory concentration ([3]; Staphylococcus aureus clinical strain 3): 1
Minimum inhibitory concentration ([3]; Staphylococcus aureus clinical strain 4): 2
Minimum inhibitory concentration ([3]; Staphylococcus aureus clinical strain 5): 2
Minimum inhibitory concentration ([4]; Candida albicans clinical yeast strain 1): 16
Minimum inhibitory concentration ([4]; Candida albicans clinical yeast strain 2): 16
Minimum inhibitory concentration ([4]; Candida albicans clinical yeast strain 3): 16
Minimum inhibitory concentration ([4]; Candida albicans clinical yeast strain 4): 16
Minimum inhibitory concentration ([4]; Candida albicans clinical yeast strain 5): 16
Minimum inhibitory concentration ([5]; Acinetobacter baumannii clinical strain 1): 4
Minimum inhibitory concentration ([5]; Acinetobacter baumannii clinical strain 2): 4
Minimum inhibitory concentration ([5]; Acinetobacter baumannii clinical strain 3): 4
Minimum inhibitory concentration ([5]; Acinetobacter baumannii clinical strain 4): 2
Minimum inhibitory concentration ([5]; Acinetobacter baumannii clinical strain 5): 2
Minimum inhibitory concentration ([6]; C. parapsilosis clinical yeast strain 1): 8
Minimum inhibitory concentration ([6]; C. parapsilosis clinical yeast strain 2): 8
Minimum inhibitory concentration ([6]; C. parapsilosis clinical yeast strain 3): 8
Minimum inhibitory concentration ([6]; C. parapsilosis clinical yeast strain 4): 4
Minimum inhibitory concentration ([7]; Serratia marcescens clinical strain 1): 128
Minimum inhibitory concentration ([7]; Serratia marcescens clinical strain 2): 128
Minimum inhibitory concentration ([7]; Serratia marcescens clinical strain 3): 64
Minimum inhibitory concentration ([7]; Serratia marcescens clinical strain 4): >128
Minimum inhibitory concentration ([7]; Serratia marcescens clinical strain 5): 128
Minimum inhibitory concentration ([8]; C. glabrata clinical yeast strain 1): 16
Minimum inhibitory concentration ([8]; C. glabrata clinical yeast strain 2): 16
Minimum inhibitory concentration ([8]; C. glabrata clinical yeast strain 3): 16
Minimum inhibitory concentration ([8]; C. glabrata clinical yeast strain 4): 16
Minimum inhibitory concentration ([9]; Proteus mirabilis clinical strain 1): >128
Minimum inhibitory concentration ([9]; Proteus mirabilis clinical strain 2): 32
Minimum inhibitory concentration ([9]; Proteus mirabilis clinical strain 3): 128
Minimum inhibitory concentration ([9]; Proteus mirabilis clinical strain 4): >128
Minimum inhibitory concentration ([9]; Proteus mirabilis clinical strain 5): >128
Minimum inhibitory concentration ([10]; Pseudomonas aeruginosa clinical strain 1): 8
Minimum inhibitory concentration ([10]; Pseudomonas aeruginosa clinical strain 2): 8
Minimum inhibitory concentration ([10]; Pseudomonas aeruginosa clinical strain 3): 4
Minimum inhibitory concentration ([10]; Pseudomonas aeruginosa clinical strain 4): 4
Minimum inhibitory concentration ([10]; Pseudomonas aeruginosa clinical strain 5): 4
Minimum inhibitory concentration ([11]; Enterobacter cloacae clinical strain 1): 2
Minimum inhibitory concentration ([11]; Enterobacter cloacae clinical strain 2): 2
Minimum inhibitory concentration ([11]; Enterobacter cloacae clinical strain 3): 2
Minimum inhibitory concentration ([11]; Enterobacter cloacae clinical strain 4): 2
Minimum inhibitory concentration ([11]; Enterobacter cloacae clinical strain 5): 2
Minimum inhibitory concentration ([12]; Klebsiella pneumoniae clinical strain 1): 4
Minimum inhibitory concentration ([12]; Klebsiella pneumoniae clinical strain 2): 4
Minimum inhibitory concentration ([12]; Klebsiella pneumoniae clinical strain 3): 4
Minimum inhibitory concentration ([12]; Klebsiella pneumoniae clinical strain 4): 4
Minimum inhibitory concentration ([12]; Klebsiella pneumoniae clinical strain 5): 4
Minimum inhibitory concentration [13]: 4
Minimum inhibitory concentration ([14]; Streptococcus pneumoniae clinical strain 1): 8
Minimum inhibitory concentration ([14]; Streptococcus pneumoniae clinical strain 2): 4
Minimum inhibitory concentration ([14]; Streptococcus pneumoniae clinical strain 3): 8
Minimum inhibitory concentration ([14]; Streptococcus pneumoniae clinical strain 4): 2
Minimum inhibitory concentration ([14]; Streptococcus pneumoniae clinical strain 5): 4
